According to PubChem BioAssay AID1963983 (Molecular Pharmacology Branch, DTP, NCI, 2024):
Values joined by “and” are separate entries in the source; they are usually repeats but may differ in a detail not shown here. Equal values may be shown once. One block for each compound: values may come before it.

System: 186277-243-T-J2-PDC multi-cell spheroid viability
Assay: Anticancer human tumor 186277-243-T-J2-PDC patient-derived colon adenocarcinoma cell line growth inhibition [PI3K]
Conditions: for viability, T/C: stronger effect = lower value
In short: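 Agents were dosed from a top concentration near clinical Cmax (otherwise 10 microM) in half-log decrements, alone or combined with PI3K inhibitors. The spheroids contain tumor cells plus endothelial (HUVEC) and MSC stroma; viability is measured.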

[1] = curve of first compound, second compound 0.00316 µM
[2] = curve of first compound, second compound 0.01 µM
[3] = curve of first compound, second compound 0.0316 µM
[4] = curve of first compound, second compound 0.1 µM
[5] = curve of first compound, second compound 0.316 µM
[6] = curve of first compound, second compound 1 µM
[7] = second compound 0.00316 µM, first compound 0.0316 µM
[8] = second compound 0.00316 µM, first compound 0.1 µM
[9] = second compound 0.00316 µM, first compound 0.316 µM
[10] = second compound 0.00316 µM, first compound 1 µM
[11] = second compound 0.00316 µM, first compound 3.16 µM
[12] = second compound 0.00316 µM, first compound 10 µM
[13] = second compound 0.01 µM, first compound 0.0316 µM
[14] = second compound 0.01 µM, first compound 0.1 µM
[15] = second compound 0.01 µM, first compound 0.316 µM
[16] = second compound 0.01 µM, first compound 1 µM
[17] = second compound 0.01 µM, first compound 3.16 µM
[18] = second compound 0.01 µM, first compound 10 µM
[19] = second compound 0.0316 µM, first compound 0.0316 µM
[20] = second compound 0.0316 µM, first compound 0.1 µM
[21] = second compound 0.0316 µM, first compound 0.316 µM
[22] = second compound 0.0316 µM, first compound 1 µM
[23] = second compound 0.0316 µM, first compound 3.16 µM
[24] = second compound 0.0316 µM, first compound 10 µM
[25] = second compound 0.1 µM, first compound 0.0316 µM
[26] = second compound 0.1 µM, first compound 0.1 µM
[27] = second compound 0.1 µM, first compound 0.316 µM
[28] = second compound 0.1 µM, first compound 1 µM
[29] = second compound 0.1 µM, first compound 3.16 µM
[30] = second compound 0.1 µM, first compound 10 µM
[31] = second compound 0.316 µM, first compound 0.0316 µM
[32] = second compound 0.316 µM, first compound 0.1 µM
[33] = second compound 0.316 µM, first compound 0.316 µM
[34] = second compound 0.316 µM, first compound 1 µM
[35] = second compound 0.316 µM, first compound 3.16 µM
[36] = second compound 0.316 µM, first compound 10 µM
[37] = second compound 1 µM, first compound 0.0316 µM
[38] = second compound 1 µM, first compound 0.1 µM
[39] = second compound 1 µM, first compound 0.316 µM
[40] = second compound 1 µM, first compound 1 µM
[41] = second compound 1 µM, first compound 3.16 µM
[42] = second compound 1 µM, first compound 10 µM
[43] = second compound 0.0316 µM, first compound 0.000316 µM
[44] = second compound 0.0316 µM, first compound 0.001 µM
[45] = second compound 0.0316 µM, first compound 0.00316 µM
[46] = second compound 0.0316 µM, first compound 0.01 µM
[47] = second compound 0.1 µM, first compound 0.000316 µM
[48] = second compound 0.1 µM, first compound 0.001 µM
[49] = second compound 0.1 µM, first compound 0.00316 µM
[50] = second compound 0.1 µM, first compound 0.01 µM
[51] = second compound 0.316 µM, first compound 0.000316 µM
[52] = second compound 0.316 µM, first compound 0.001 µM
[53] = second compound 0.316 µM, first compound 0.00316 µM
[54] = second compound 0.316 µM, first compound 0.01 µM
[55] = second compound 1 µM, first compound 0.000316 µM
[56] = second compound 1 µM, first compound 0.001 µM
[57] = second compound 1 µM, first compound 0.00316 µM
[58] = second compound 1 µM, first compound 0.01 µM
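Also: spheroids exposed to compounds for seven days before viability reading.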
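For viability, T/C in this document: 100% = DMSO vehicle control viability.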

IC50 [1]: > 10000 nM
IC50 [2]: > 10000 nM
IC50 [3]: > 10000 nM
IC50 [4]: < 31.6 nM
IC50 [5]: < 31.6 nM
IC50 [6]: < 31.6 nM
SMILES: CNC(=O)c1ccc(N2C(=S)N(c3ccc(C#N)c(C(F)(F)F)c3)C(=O)C2(C)C)cc1F + COc1c(OCCCN2CCOCC2)ccc2c3n(c(=NC(=O)c4cnc(N)nc4)nc12)CCN3
viability, T/C [7]: 110%
viability, T/C [8]: 113%
viability, T/C [9]: 111%
viability, T/C [10]: 88.2%
viability, T/C [11]: 112%
viability, T/C [12]: 107%
viability, T/C [13]: 98.8%
viability, T/C [14]: 121%
viability, T/C [15]: 103%
viability, T/C [16]: 94.8%
viability, T/C [17]: 112%
viability, T/C [18]: 115%
viability, T/C [19]: 88.9%
viability, T/C [20]: 85.6%
viability, T/C [21]: 81.3%
viability, T/C [22]: 81.7%
viability, T/C [23]: 95.3%
viability, T/C [24]: 73.4%
viability, T/C [25]: 23.3%
viability, T/C [26]: 20.2%
viability, T/C [27]: 21.5%
viability, T/C [28]: 17.8%
viability, T/C [29]: 19.6%
viability, T/C [30]: 22.7%
viability, T/C [31]: 6.01%
viability, T/C [32]: 6.73%
viability, T/C [33]: 4.24%
viability, T/C [34]: 5.77%
viability, T/C [35]: 7.13%
viability, T/C [36]: 5.44%
viability, T/C [37]: 3.23%
viability, T/C [38]: 2.22%
viability, T/C [39]: 3.19%
viability, T/C [40]: 1.9%
viability, T/C [41]: 2.85%
viability, T/C [42]: 4.06%

IC50 (curve of compound): > 100 nM
SMILES: CC(=O)c1c(C)c2cnc(Nc3ccc(N4CCNCC4)cn3)nc2n(C2CCCC2)c1=O
viability, T/C (compound 0.000316 µM): 97.1% [middle of 4 runs]
viability, T/C (compound 0.001 µM): 91.1% [middle of 4 runs]
viability, T/C (compound 0.00316 µM): 91.5% and 103% and 102% (2×)
viability, T/C (compound 0.01 µM): 105% [middle of 4 runs]

IC50 [1]: > 10000 nM
IC50 [2]: > 10000 nM
IC50 [3]: > 10000 nM
IC50 [4]: > 10000 nM
IC50 [5]: > 10000 nM
IC50 [6]: 356 nM
SMILES: CNC(=O)c1ccc(N2C(=S)N(c3ccc(C#N)c(C(F)(F)F)c3)C(=O)C2(C)C)cc1F + CC(Nc1ccc2c(c1)OCCn1cc(N3C(=O)OCC3C(F)F)nc1-2)C(N)=O
viability, T/C [7]: 109%
viability, T/C [8]: 95.8%
viability, T/C [9]: 90.8%
viability, T/C [10]: 98%
viability, T/C [11]: 109%
viability, T/C [12]: 92.2%
viability, T/C [13]: 98%
viability, T/C [14]: 83.8%
viability, T/C [15]: 99.3%
viability, T/C [16]: 89.4%
viability, T/C [17]: 93.7%
viability, T/C [18]: 106%
viability, T/C [19]: 110%
viability, T/C [20]: 111%
viability, T/C [21]: 94.1%
viability, T/C [22]: 113%
viability, T/C [23]: 113%
viability, T/C [24]: 99.2%
viability, T/C [25]: 105%
viability, T/C [26]: 95.5%
viability, T/C [27]: 100%
viability, T/C [28]: 112%
viability, T/C [29]: 90.2%
viability, T/C [30]: 86.1%
viability, T/C [31]: 86.6%
viability, T/C [32]: 80%
viability, T/C [33]: 68.5%
viability, T/C [34]: 79.4%
viability, T/C [35]: 73.7%
viability, T/C [36]: 63.4%
viability, T/C [37]: 58%
viability, T/C [38]: 50.4%
viability, T/C [39]: 45.1%
viability, T/C [40]: 51.6%
viability, T/C [41]: 49.6%
viability, T/C [42]: 38.5%

IC50 [1]: > 100 nM
IC50 [2]: > 100 nM
IC50 [3]: > 100 nM
IC50 [4]: > 100 nM
IC50 [5]: 96.4 nM
IC50 [6]: < 0.316 nM
SMILES: CC(=O)c1c(C)c2cnc(Nc3ccc(N4CCNCC4)cn3)nc2n(C2CCCC2)c1=O + CC(Nc1ccc2c(c1)OCCn1cc(N3C(=O)OCC3C(F)F)nc1-2)C(N)=O
viability, T/C (second compound 0.00316 µM, first compound 0.000316 µM): 114%
viability, T/C (second compound 0.00316 µM, first compound 0.001 µM): 89.2%
viability, T/C (second compound 0.00316 µM, first compound 0.00316 µM): 82.3%
viability, T/C (second compound 0.00316 µM, first compound 0.01 µM): 98.5%
viability, T/C [7]: 118%
viability, T/C [8]: 137%
viability, T/C (second compound 0.01 µM, first compound 0.000316 µM): 94%
viability, T/C (second compound 0.01 µM, first compound 0.001 µM): 94.8%
viability, T/C (second compound 0.01 µM, first compound 0.00316 µM): 89.8%
viability, T/C (second compound 0.01 µM, first compound 0.01 µM): 101%
viability, T/C [13]: 119%
viability, T/C [14]: 132%
viability, T/C [43]: 119%
viability, T/C [44]: 116%
viability, T/C [45]: 91.7%
viability, T/C [46]: 96.3%
viability, T/C [19]: 134%
viability, T/C [20]: 122%
viability, T/C [47]: 104%
viability, T/C [48]: 89.3%
viability, T/C [49]: 102%
viability, T/C [50]: 98.6%
viability, T/C [25]: 101%
viability, T/C [26]: 89.4%
viability, T/C [51]: 85.3%
viability, T/C [52]: 73.6%
viability, T/C [53]: 73.2%
viability, T/C [54]: 76.1%
viability, T/C [31]: 63.5%
viability, T/C [32]: 49.3%
viability, T/C [55]: 49.7%
viability, T/C [56]: 43.5%
viability, T/C [57]: 47.5%
viability, T/C [58]: 41.2%
viability, T/C [37]: 35.7%
viability, T/C [38]: 29.6%

IC50 [3]: 53.1 nM
IC50 [4]: 52.6 nM
IC50 [5]: 38 nM
IC50 [6]: 24.5 nM
IC50 (curve of first compound, second compound 3.16 µM): 2.04 nM
IC50 (curve of first compound, second compound 10 µM): < 0.316 nM
SMILES: CC(C)n1nc(-c2ccc3oc(N)nc3c2)c2c(N)ncnc21 + Cc1nc(NC(=O)N2CCCC2C(N)=O)sc1-c1ccnc(C(C)(C)C(F)(F)F)c1
viability, T/C [43]: 106%
viability, T/C [44]: 90.3%
viability, T/C [45]: 101%
viability, T/C [46]: 101%
viability, T/C [19]: 73.5%
viability, T/C [20]: 21.5%
viability, T/C [47]: 101%
viability, T/C [48]: 107%
viability, T/C [49]: 99.1%
viability, T/C [50]: 87.1%
viability, T/C [25]: 72.1%
viability, T/C [26]: 24.1%
viability, T/C [51]: 114%
viability, T/C [52]: 107%
viability, T/C [53]: 79.9%
viability, T/C [54]: 82.4%
viability, T/C [31]: 63.7%
viability, T/C [32]: 14.7%
viability, T/C [55]: 113%
viability, T/C [56]: 97.5%
viability, T/C [57]: 87.7%
viability, T/C [58]: 76.8%
viability, T/C [37]: 41%
viability, T/C [38]: 6.83%
viability, T/C (second compound 3.16 µM, first compound 0.000316 µM): 62.1%
viability, T/C (second compound 3.16 µM, first compound 0.001 µM): 56.8%
viability, T/C (second compound 3.16 µM, first compound 0.00316 µM): 46.2%
viability, T/C (second compound 3.16 µM, first compound 0.01 µM): 29%
viability, T/C (second compound 3.16 µM, first compound 0.0316 µM): 14.5%
viability, T/C (second compound 3.16 µM, first compound 0.1 µM): 3.88%
viability, T/C (second compound 10 µM, first compound 0.000316 µM): 17.3%
viability, T/C (second compound 10 µM, first compound 0.001 µM): 16.8%
viability, T/C (second compound 10 µM, first compound 0.00316 µM): 10.8%
viability, T/C (second compound 10 µM, first compound 0.01 µM): 13.1%
viability, T/C (second compound 10 µM, first compound 0.0316 µM): 6.47%
viability, T/C (second compound 10 µM, first compound 0.1 µM): 2.92%
